In patent US11446287B2, “Compounds and methods for EP300 or CBP modulation and indications therefor” (Opna Immuno-Oncology SA, priority 2019, dated 2022):

Target: T1, Recombinant human BRD4 containing dual bromodomains (BRD4-BD12 (1-477)) (Homo sapiens, UniProt O60885)
T1 construct: Recombinant human BRD4 containing dual bromodomains (BRD4-BD12 (1-477)); made in house; host or cells: E. coli BL21-CodonPlus (DE3), modified pET vector
Test: BRD4 Alphascreen binding assay
Procedure, shortened: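 AlphaScreen proximity between Ni-chelate-bound BRD4-BD12 (1-477) and streptavidin-captured H4 K5/K8/K12/K16-acetyl peptide measured after 1 h room-temperature compound incubation and 30 min with 7.5 μg/ml beads. Buffer: 50 mM HEPES pH 7.5, 50 mM NaCl, 0.01% BSA, 0.01% Triton X-100; data plate-normalized and four-parameter fit for IC50.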

Row | SMILES | IC50
1 | Cc1noc(C)c1-c1cnc2c(c1)c(-c1ccc(C(=O)O)cc1)cn2C(C)c1ncccn1 (stereo not shown) [P-0013, 4-(5-(3,5-dimethylisoxazol-4-yl)-1-(1-(pyrimidin-2-yl)ethyl)-1H-pyrrolo[2,3-b]pyridin-3-yl)benzoic acid] | 8 to 1000 µM
2 | Cc1noc(C)c1-c1cnc2c(c1)c(-c1ccc(C(=O)O)cc1)cn2C(C)c1ccc(F)cn1 (stereo not shown) [P-0014, 4-(5-(3,5-dimethylisoxazol-4-yl)-1-(1-(5-fluoropyridin-2-yl)ethyl)-1H-pyrrolo[2,3-b]pyridin-3-yl)benzoic acid] | 8 to 1000 µM
3 | Cc1noc(C)c1-c1cnc2c(c1)c(-c1cccc(C(=O)O)c1)cn2C(c1ccccn1)C1CCCC1 (stereo not shown) [P-0015, 3-(1-(cyclopentyl(pyridin-2-yl)methyl)-5-(3,5-dimethylisoxazol-4-yl)-1H-pyrrolo[2,3-b]pyridin-3-yl)benzoic acid] | 1 to 8 µM
4 | Cc1noc(C)c1-c1cnc2c(c1)c(-c1ccc(F)c(C(=O)O)c1)cn2C(c1ccccn1)C1CCCC1 (stereo not shown) [P-0016, 5-(1-(cyclopentyl(pyridin-2-yl)methyl)-5-(3,5-dimethylisoxazol-4-yl)-1H-pyrrolo[2,3-b]pyridin-3-yl)-2-fluorobenzoic acid] | 1 to 8 µM
5 | Cc1noc(C)c1-c1cnc2c(c1)c(-c1ccnc(C(=O)O)c1)cn2C(c1ccccn1)C1CCCC1 (stereo not shown) [P-0017, 4-(1-(cyclopentyl(pyridin-2-yl)methyl)-5-(3,5-dimethylisoxazol-4-yl)-1H-pyrrolo[2,3-b]pyridin-3-yl)picolinic acid] | 1 to 8 µM
6 | Cc1noc(C)c1-c1cnc2c(c1)c(-c1cccc(CC(=O)O)c1)cn2C(c1ccccn1)C1CCCC1 (stereo not shown) [P-0018, 2-(3-(1-(cyclopentyl(pyridin-2-yl)methyl)-5-(3,5-dimethylisoxazol-4-yl)-1H-pyrrolo[2,3-b]pyridin-3-yl)phenyl)acetic acid] | 1 to 8 µM
7 | Cc1noc(C)c1-c1cnc2c(c1)c(-c1ccncc1)cn2C(c1ccccn1)C1CCCC1 (stereo not shown) [P-0019, 4-(1-(cyclopentyl(pyridin-2-yl)methyl)-3-(pyridin-4-yl)-1H-pyrrolo[2,3-b]pyridin-5-yl)-3,5-dimethylisoxazole] | 1 to 8 µM
8 | Cc1noc(C)c1-c1cnc2c(c1)c(-c1ccc(C(=O)O)cc1OC1CC1)cn2[C@@H](C)c1ccccn1 [P-0170, (S)-3-cyclopropoxy-4-(5-(3,5-dimethylisoxazol-4-yl)-1-(1-(pyridin-2-yl)ethyl)-1H-pyrrolo[2,3-b]pyridin-3-yl)benzoic acid] | 8 to 1000 µM
9 | Cc1noc(C)c1-c1cnc2c(-c3ccc(C(=O)O)cc3C#CC3CC3)cn([C@@H](C)c3ccccn3)c2c1 [P-0171, (S)-3-(cyclopropylethynyl)-4-(6-(3,5-dimethylisoxazol-4-yl)-1-(1-(pyridin-2-yl)ethyl)-1H-pyrrolo[3,2-b]pyridin-3-yl)benzoic acid] | 0.0001 to 1 µM
10 | COc1ccc(C(=O)O)cc1-c1cn(C(C)(c2ccccn2)c2ccccn2)c2cc(-c3c(C)noc3C)cnc12 [P-0172, 3-(1-(1,1-di(pyridin-2-yl)ethyl)-6-(3,5-dimethylisoxazol-4-yl)-1H-pyrrolo[3,2-b]pyridin-3-yl)-4-methoxybenzoic acid] | 1 to 8 µM
11 | CCOc1cc(C(=O)O)cc(OCC)c1-n1cc(-c2cccnc2)c2ncc(-c3c(C)noc3C)cc21 [P-0173, 4-(6-(3,5-dimethylisoxazol-4-yl)-3-(pyridin-3-yl)-1H-pyrrolo[3,2-b]pyridin-1-yl)-3,5-diethoxybenzoic acid] | 1 to 8 µM
12 | CCOc1cc(C(=O)O)cc(OC(C)C)c1-c1cn([C@@H](C)c2ccccn2)c2ncc(-c3c(C)noc3C)cc12 [P-0174, (S)-4-(5-(3,5-dimethylisoxazol-4-yl)-1-(1-(pyridin-2-yl)ethyl)-1H-pyrrolo[2,3-b]pyridin-3-yl)-3-ethoxy-5-isopropoxybenzoic acid] | 8 to 1000 µM
13 | Cc1noc(C)c1-c1cnc2c(c1)c(-c1ccc(C(=O)O)cc1OC(F)(F)F)cn2-c1cccnc1 [P-0175, 4-(5-(3,5-dimethylisoxazol-4-yl)-1-(pyridin-3-yl)-1H-pyrrolo[2,3-b]pyridin-3-yl)-3-(trifluoromethoxy)benzoic acid] | 1 to 8 µM
14 | COc1ccncc1-n1cc(-c2ccc(C(=O)O)cc2OC(F)(F)F)c2cc(-c3c(C)noc3C)cnc21 [P-0176, 4-(5-(3,5-dimethylisoxazol-4-yl)-1-(4-methoxypyridin-3-yl)-1H-pyrrolo[2,3-b]pyridin-3-yl)-3-(trifluoromethoxy)benzoic acid] | 1 to 8 µM
15 | Cc1noc(C)c1-c1cnc2c(c1)c(-c1ccc(C(=O)O)cc1OC(F)(F)F)cn2-c1cnccc1Cl [P-0177, 4-(1-(4-chloropyridin-3-yl)-5-(3,5-dimethylisoxazol-4-yl)-1H-pyrrolo[2,3-b]pyridin-3-yl)-3-(trifluoromethoxy)benzoic acid] | 8 to 1000 µM
16 | Cc1noc(C)c1-c1cnc2c(c1)c(-c1ccc(C(=O)O)cc1C#CC1CC1)cn2[C@@H](C)c1ccccn1 [P-0178, (S)-3-(cyclopropylethynyl)-4-(5-(3,5-dimethylisoxazol-4-yl)-1-(1-(pyridin-2-yl)ethyl)-1H-pyrrolo[2,3-b]pyridin-3-yl)benzoic acid] | 8 to 1000 µM

Row | SMILES | IC50
17 | Cc1noc(C)c1-c1cnc2c(c1)c(-c1ccc(C(=O)O)cc1OC1CCC1)cn2[C@@H](C)c1ccccn1 [P-0179, (S)-3-cyclobutoxy-4-(5-(3,5-dimethylisoxazol-4-yl)-1-(1-(pyridin-2-yl)ethyl)-1H-pyrrolo[2,3-b]pyridin-3-yl)benzoic acid] | 8 to 1000 µM
18 | Cc1noc(C)c1-c1cnc2c(c1)c(-c1ccc(C(=O)O)cc1OC(F)(F)F)cn2-c1ncccc1C(F)(F)F [P-0180, 4-(5-(3,5-dimethylisoxazol-4-yl)-1-(3-(trifluoromethyl)pyridin-2-yl)-1H-pyrrolo[2,3-b]pyridin-3-yl)-3-(trifluoromethoxy)benzoic acid] | 8 to 1000 µM
19 | Cc1noc(C)c1-c1cnc2c(c1)c(-c1ccc(C(=O)O)cc1C1CC1)cn2[C@@H](C)c1ccccn1 [P-0181, (S)-3-cyclopropyl-4-(5-(3,5-dimethylisoxazol-4-yl)-1-(1-(pyridin-2-yl)ethyl)-1H-pyrrolo[2,3-b]pyridin-3-yl)benzoic acid] | 8 to 1000 µM
20 | Cc1noc(C)c1-c1cnc2c(c1)c(-c1ccc(C(=O)O)cc1OC(F)(F)F)cn2-c1ncccc1F [P-0182, 4-(5-(3,5-dimethylisoxazol-4-yl)-1-(3-fluoropyridin-2-yl)-1H-pyrrolo[2,3-b]pyridin-3-yl)-3-(trifluoromethoxy)benzoic acid] | 1 to 8 µM
21 | Cc1noc(C)c1-c1cnc2c(c1)c(-c1ccc(C(=O)O)cc1OC(F)(F)F)cn2-c1ncccc1Cl [P-0183, 4-(1-(3-chloropyridin-2-yl)-5-(3,5-dimethylisoxazol-4-yl)-1H-pyrrolo[2,3-b]pyridin-3-yl)-3-(trifluoromethoxy)benzoic acid] | 8 to 1000 µM
22 | CCOc1cc(C(=O)O)cc(OCC)c1-n1cc(-c2ccc(F)cc2)c2ncc(-c3c(C)noc3C)cc21 [P-0184, 4-(6-(3,5-dimethylisoxazol-4-yl)-3-(4-fluorophenyl)-1H-pyrrolo[3,2-b]pyridin-1-yl)-3,5-diethoxybenzoic acid] | 1 to 8 µM
23 | CCOc1cc(C(=O)O)cc(OCC)c1-n1cc(-c2cccc(Cl)c2)c2ncc(-c3c(C)noc3C)cc21 [P-0185, 4-(3-(3-chlorophenyl)-6-(3,5-dimethylisoxazol-4-yl)-1H-pyrrolo[3,2-b]pyridin-1-yl)-3,5-diethoxybenzoic acid] | 1 to 8 µM
24 | CCOc1cc(C(=O)O)cc(OCC)c1-n1cc(-c2ccc(F)cc2F)c2ncc(-c3c(C)noc3C)cc21 [P-0186, 4-(3-(2,4-difluorophenyl)-6-(3,5-dimethylisoxazol-4-yl)-1H-pyrrolo[3,2-b]pyridin-1-yl)-3,5-diethoxybenzoic acid] | 8 to 1000 µM
25 | CCOc1cc(C(=O)O)cc(OCC)c1-n1cc(Cc2ccccn2)c2ncc(-c3c(C)noc3C)cc21 [P-0187, 4-(6-(3,5-dimethylisoxazol-4-yl)-3-(pyridin-2-ylmethyl)-1H-pyrrolo[3,2-b]pyridin-1-yl)-3,5-diethoxybenzoic acid] | 8 to 1000 µM
26 | Cc1noc(C)c1-c1cnc2c(c1)c(-c1ccc(C(=O)O)cc1OC(F)(F)F)cn2-c1ccccc1 [P-0188, 4-(5-(3,5-dimethylisoxazol-4-yl)-1-phenyl-1H-pyrrolo[2,3-b]pyridin-3-yl)-3-(trifluoromethoxy)benzoic acid] | 1 to 8 µM
27 | Cc1ccncc1-n1cc(-c2ccc(C(=O)O)cc2OC(F)(F)F)c2cc(-c3c(C)noc3C)cnc21 [P-0189, 4-(5-(3,5-dimethylisoxazol-4-yl)-1-(4-methylpyridin-3-yl)-1H-pyrrolo[2,3-b]pyridin-3-yl)-3-(trifluoromethoxy)benzoic acid] | 8 to 1000 µM
28 | CCOc1cc(C(=O)O)cc(OCC)c1-n1cc(CC2CCC2)c2ncc(-c3c(C)nnn3C)cc21 [P-0190, 4-(3-(cyclobutylmethyl)-6-(1,4-dimethyl-1H-1,2,3-triazol-5-yl)-1H-pyrrolo[3,2-b]pyridin-1-yl)-3,5-diethoxybenzoic acid] | 1 to 8 µM
29 | Cc1noc(C)c1-c1cnc2c(c1)c(-c1ccc(C(=O)O)cc1OC(F)(F)F)cn2CCN1CCOCC1 [P-0191, 4-(5-(3,5-dimethylisoxazol-4-yl)-1-(2-morpholinoethyl)-1H-pyrrolo[2,3-b]pyridin-3-yl)-3-(trifluoromethoxy)benzoic acid] | 8 to 1000 µM
30 | CCOc1cc(C(=O)O)cc(OCC)c1-n1cc(-c2ccc(C3CC3)nc2)c2ncc(-c3c(C)noc3C)cc21 [P-0192, 4-(3-(6-cyclopropylpyridin-3-yl)-6-(3,5-dimethylisoxazol-4-yl)-1H-pyrrolo[3,2-b]pyridin-1-yl)-3,5-diethoxybenzoic acid] | 1 to 8 µM
31 | CCOc1cc(C(=O)O)cc(OCC)c1-n1cc(-c2cncc(Cl)c2)c2ncc(-c3c(C)noc3C)cc21 [P-0193, 4-(3-(5-chloropyridin-3-yl)-6-(3,5-dimethylisoxazol-4-yl)-1H-pyrrolo[3,2-b]pyridin-1-yl)-3,5-diethoxybenzoic acid] | 1 to 8 µM
